Results on four compounds are retold here after PMC11470957, “Principles of paralog-specific targeted protein degradation engaging the C-degron E3 KLHDC2” (Nature Communications, 2024).

For orientation: ΔTm means the change in melting temperature against a reference sample.

The experiment deals with T1, KLHDC2^SBD (Homo sapiens, UniProt Q9Y2U9).
T1 sequence (Q9Y2U9 15-361): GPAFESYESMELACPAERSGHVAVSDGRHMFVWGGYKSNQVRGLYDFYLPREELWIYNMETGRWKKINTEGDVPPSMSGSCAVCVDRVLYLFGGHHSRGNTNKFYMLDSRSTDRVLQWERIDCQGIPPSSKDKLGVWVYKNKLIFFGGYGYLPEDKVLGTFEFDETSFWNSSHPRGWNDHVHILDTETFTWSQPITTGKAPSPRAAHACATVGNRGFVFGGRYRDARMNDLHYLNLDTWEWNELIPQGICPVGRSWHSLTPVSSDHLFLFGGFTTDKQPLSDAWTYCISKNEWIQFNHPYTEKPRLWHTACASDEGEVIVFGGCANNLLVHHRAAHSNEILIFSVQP
Put plainly: Thermal shift assay (Sypro Orange) probing stabilization of KLHDC2^SBD. It is filed as binding. On the set-up: KLHDC2^SBD (15-361) and its Avi-tagged counterpart were expressed in E. coli Rosetta2 cells; 6XHis-MBP (N, cleaved yes); made in house; host or cells: E. coli Rosetta2. To be noted: for ΔTm at 50 µM: read-out: ΔTm at 50 µM; for Thermal shift ΔTm: KLHDC2^SBD, ligand concentration not given. As to the method:
In an attempt to identify non-peptide ligands that target KLHDC2’s substrate binding domain (SBD), we developed a thermal shift assay probing for stabilization of KLHDC2^SBD upon ligand addition. […] We utilized the thermal shift assay to screen ~ 9,000 molecules from a diverse collection of lead-like molecules (Figs. 1b, S1a, Supplementary Table 1).
Experimental compounds (200 nl each) were dispensed into a 384-well PCR plate using the Labcyte ECHO 655 T. The assay solution, comprising 0.5 μM KLHDC2, 25 mM HEPES, 200 mM NaCl, and 5% Sypro Orange at pH 7.5, was added to achieve a final volume of 20 μl. Negative control wells contained only DMSO, while positive control wells contained a di-Gly substrate peptide derived from SELK. Fluorescence measurements of Sypro Orange in each sample were taken using a Quantstudio 5 or Quantstudio 6, with temperatures ranging from 23 to 75 °C at a rate of 0.05 °C/s. Data analysis involved calculating thermal stability using the Boltzmann and first derivative minima equations in Thermo Scientific Protein Thermal Shift software v1.4. The resulting data were uploaded to CDD Vault for further analysis.
The 8892-compound lead-like one library was screened for its ability to stabilize KLHDC2 using a sypro orange-based thermal stability single-point assay.
Supplementary Ta b l e 1. Small molecule screening data
Category Parameter Description
Assay Ty p e o f assay Thermal Stability Screen
Primary measurement RFU of Sypro Orange
Key reagents Sypro Orange
Assay protocol Experimental compounds (200nl each) were dispensed into […]
a 384-well PCR plate using the Labcyte ECHO 655T. The […]
assay solution, comprising 0.5µM KLHDC2, 25mM HEPES,
200mM NaCl, and 5% Sypro Orange at pH 7.5, was added […]
to achieve a final volume of 20μl. Negative control wells […]
contained only DMSO, while positive control wells […]
contained peptide sub2. Fluorescence measurements of
Sypro Orange in each sample were taken using a
Quantstudio 5 or Quantstudio 6, with temperatures ranging […]
from 23 to 75°C at a rate of 0.05°C/second. Data analysis […]
involved calculating thermal stability using the Boltzmann […]
and first derivative minima equations in Thermo Scientific
Protein Thermal Shift software v1.4. The resulting data […]
were uploaded to CDD Vault for further analysis.
Library Library size 10041
Library composition The library was curated from compounds cherry picked […]
from St. Jude’s collection, representative of 80% of the […]
entire collection based on scaffold diversity (2D Molecular […]
fingerprinting based clustering) and structural properties: […]
lipophilicity (cLogP<3), size (MW 200-300 Da), and no […]
structural alerts (PAINS).
Source The compound collection was curated from multiple […]
vendors and stored on-site.
Screen Format The assay was completed in 26 384 well plates
Concentration(s) tested Compounds were tested at 100µM, and then a 16-point […]
serial dilution was performed on select compounds.
Plate controls DMSO as negative control and peptide sub2 as positive […]
Reagent/ compound dispensing system Multidrop Combi and Labcyte ECHO 655T […]
Detection instrument and software Quant Studio 5 and Quant Studio 6 and Thermo Scientific […]
Protein Thermal Shift software v1.4
Correction factors No correction factors were applied.

On to `O=C(O)CNC(=O)Cc1csc(-c2ccccc2F)n1` [SJ6145], for which the ΔTm at 50 µM was found to be 1.1 ± 0.03 °C.

Take `COCOc1ccc(-c2nc(CC(=O)NCC(=O)O)cs2)c(Cl)c1` [SJ10278]: the ΔTm at 50 µM turned out to be 3.5 ± 0.3 °C.

For `O=C(O)CNC(=O)Cc1csc(-c2ccc3ccccc3c2)n1` [SJ46411], the “Thermal shift ΔTm” value worked out at 6.0 °C.

Regarding `COCCOc1cccc2ccc(-c3nc(CC(=O)NCC(=O)O)cs3)cc12` [SJ46418], the “Thermal shift ΔTm” value turned out to be 4.3 °C.
